# According to patent publication US11534440B2, “Combination therapy with Axl inhibitor and immune checkpoint modulator or oncolytic virus” (BerGenBio ASA, priority 2015, dated 2022):
# Entries after “also recorded” stand apart in the source; their conditions may differ.
# Experiments:
# [1] = test system: Cytotoxic T cells (CTLs), Natural Killer cells (NK), mMDSCs; test: Immune cell sub-populations in tumors, Lewis Lung model; format: in vivo, C57Bl/6 mice; conditions: BGB324 combined with PD-1/PD-L1 compared to PD-1/PD-L1 alone, day 21
# Source text: • Species/Strain: Balb/c ABomTac • Source: Taconic Farms • Sex: Female • Weight: 20-30 grams on the day of implantation • Age: at least 6 weeks old on the day of randomization • Animal Identification: Cage number and ear notching Experimental Animals for Syngeneic Lewis Lung Model: • Species/Strain: C57BL/6JOlaHsd • Source: Harlan Laboratories • Sex: Female • Weight: 20-30 grams on the day of implantation • Age: at least 6 weeks old on the day of randomization • Animal Identification: Cage number and ear notching Cells and Materials: • RPMI-1640 (Sigma, Cat. # R8758) supplemented with 10% fetal bovine serum (FBS), L-glutamine (4 mM), streptomycin (5 μg/ml) and penicillin (5 U/ml). • BD Matrigel™ Basement Membrane Matrix Growth Factor Reduced, BD Bioscience, Cat. #354230, Lot #2229975. • 0.25% Trypsin-EDTA, Sigma, Cat. # SLBD8049. Drugs Vehicle: 0.5% HPMC/0.1% Tween 80 vehicle for BGB324. Sterile PBS for immune checkpoint inhibitors. IgG: InVivoMAb Polyclonal Armenian Hamster IgG, BE0091, BioXCell, Isotype control for IP injections. BGB324: Manufacturer: Almac Group, N Ireland, batch Q1080. BGB324 powder was stored at room temperature. […] BGB324 was diluted in vehicle to 5 mg/ml dosing solution and administered to the mice immediately. BGB324 solution was freshly prepared every day. Anti-mCTLA-4 (CD152) monoclonal antibody (CTAA-4): Syrian Hamster IgG, clone 9H10 (BioXCell, Cat. # BE0131). […] Anti-mPD-L1 monoclonal antibody (PD-L1): rat IgG2b, clone 10F.9G2 (BioXCell, Cat # BE0101). Methods Cell Culture 4T1 mammary adenocarcinoma cells and Non Small Cell Lung Cancer (NSCLC) Lewis Lung (LL2) were propagated at sub-confluence and split on a regular basis every 3rd day. After trypsinization, the cells were washed once in RPMI/FBS (7 min at 1200 rpm) and re-suspended at 4×10^6 cells/ml (4T1 cells) or 2.5×10^6 per ml (LL2 cells) in a mixture of serum-free RPMI medium and Matrigel (1:1). Subcutaneous Tumor Inoculation Each animal was weighed before cell implantation. Injection of cells was performed after anesthetizing of mice by inhalation of sevoflurane. […]
# [2] = test system: Cytotoxic T cells (CTLs), Natural Killer cells, macrophages, neutrophils, mMDSCs; test: Immune cell sub-populations in tumors and spleens, 4T1 model; format: in vivo, Balb/c mice
# Source text: • Species/Strain: Balb/c ABomTac • Source: Taconic Farms • Sex: Female • Weight: 20-30 grams on the day of implantation • Age: at least 6 weeks old on the day of randomization • Animal Identification: Cage number and ear notching Experimental Animals for Syngeneic Lewis Lung Model: • Species/Strain: C57BL/6JOlaHsd • Source: Harlan Laboratories • Sex: Female • Weight: 20-30 grams on the day of implantation • Age: at least 6 weeks old on the day of randomization • Animal Identification: Cage number and ear notching Cells and Materials: • RPMI-1640 (Sigma, Cat. # R8758) supplemented with 10% fetal bovine serum (FBS), L-glutamine (4 mM), streptomycin (5 μg/ml) and penicillin (5 U/ml). • BD Matrigel™ Basement Membrane Matrix Growth Factor Reduced, BD Bioscience, Cat. #354230, Lot #2229975. • 0.25% Trypsin-EDTA, Sigma, Cat. # SLBD8049. Drugs Vehicle: 0.5% HPMC/0.1% Tween 80 vehicle for BGB324. Sterile PBS for immune checkpoint inhibitors. IgG: InVivoMAb Polyclonal Armenian Hamster IgG, BE0091, BioXCell, Isotype control for IP injections. BGB324: Manufacturer: Almac Group, N Ireland, batch Q1080. BGB324 powder was stored at room temperature. The BGB324 dosage given was well below the MTD in mice (023-TR-324). […] BGB324 was diluted in vehicle to 5 mg/ml dosing solution and administered to the mice immediately. BGB324 solution was freshly prepared every day. Anti-mCTLA-4 (CD152) monoclonal antibody (CTAA-4): Syrian Hamster IgG, clone 9H10 (BioXCell, Cat. # BE0131). Anti-mPD-1 monoclonal antibody (PD-1): rat IgG2a, clone RMP1-14 (BioXCell, Cat. # BE0146). Anti-mPD-L1 monoclonal antibody (PD-L1): rat IgG2b, clone 10F.9G2 (BioXCell, Cat # BE0101). Methods Cell Culture 4T1 mammary adenocarcinoma cells and Non Small Cell Lung Cancer (NSCLC) Lewis Lung (LL2) were propagated at sub-confluence and split on a regular basis every 3rd day. After trypsinization, the cells were washed once in RPMI/FBS (7 min at 1200 rpm) and re-suspended at 4×10^6 cells/ml (4T1 cells) or 2.5×10^6 per ml (LL2 cells) in a mixture of serum-free RPMI medium and Matrigel (1:1). Subcutaneous Tumor Inoculation Each animal was weighed before cell implantation. Injection of cells was performed after anesthetizing of mice by inhalation of sevoflurane. Anesthesia was induced with 8% sevoflurane and maintained at 4%. During injection, the mouse was placed on a heating pad. For implantation of 4T1 tumors: under a suitable depth of unconsciousness, each mouse was shaved and skin surrounding the region was washed with Chlorhexidine (1 mg/ml) with use of sterile gauze. […] Assignment of Experimental Groups Before commencement of treatment, the animals were weighted and the tumor volume was measured twice a week. […]
# Lewis Lung tumors = test: Subcutaneous Lewis Lung syngeneic tumor model: survival, tumor burden, metastasis; format: in vivo; conditions: Lewis Lung tumor bearing C57Bl/6 mice; BGB324 combined with PD-1/PD-L1 compared to PD-1/PD-L1 alone
# Source text: • Species/Strain: Balb/c ABomTac • Source: Taconic Farms • Sex: Female • Weight: 20-30 grams on the day of implantation • Age: at least 6 weeks old on the day of randomization • Animal Identification: Cage number and ear notching Experimental Animals for Syngeneic Lewis Lung Model: • Species/Strain: C57BL/6JOlaHsd • Source: Harlan Laboratories • Sex: Female • Weight: 20-30 grams on the day of implantation • Age: at least 6 weeks old on the day of randomization • Animal Identification: Cage number and ear notching Cells and Materials: • RPMI-1640 (Sigma, Cat. # R8758) supplemented with 10% fetal bovine serum (FBS), L-glutamine (4 mM), streptomycin (5 μg/ml) and penicillin (5 U/ml). • BD Matrigel™ Basement Membrane Matrix Growth Factor Reduced, BD Bioscience, Cat. #354230, Lot #2229975. • 0.25% Trypsin-EDTA, Sigma, Cat. # SLBD8049. Drugs Vehicle: 0.5% HPMC/0.1% Tween 80 vehicle for BGB324. Sterile PBS for immune checkpoint inhibitors. IgG: InVivoMAb Polyclonal Armenian Hamster IgG, BE0091, BioXCell, Isotype control for IP injections. BGB324: Manufacturer: Almac Group, N Ireland, batch Q1080. BGB324 powder was stored at room temperature. […] BGB324 was diluted in vehicle to 5 mg/ml dosing solution and administered to the mice immediately. BGB324 solution was freshly prepared every day. […]
# [3] = 4T1 model, BGB324 combined with CTLA-4/PD-1 compared to CTLA-4/PD-1 alone, day 11
smiles,measurement,setting,value
"Nc1nc(Nc2ccc3c(c2)CC[C@@H](N2CCCC2)CC3)nn1-c1cc2c(nn1)-c1ccccc1CCC2 [BGB324, 1-(6,7-dihydro-5H-benzo[6,7]cyclohepta[1,2-c]pyridazin-3-yl)-N^3-((7-(S)-pyrrolidin-1-yl)-6,7,8,9-tetrahydro-5H-benzo[7]annulene-2-yl)-1H-1,2,4-triazole-3,5-diamine]",presence of pro-tumorigenic mMDSCs,[1]; Lewis Lung model,reduction in the presence of pro-tumorigenic mMDSC
same,tumor infiltration / presence of Natural Killer cells (NK),[1]; Lewis Lung tumors,enhanced presence of NK cells
same,tumor infiltration of Cytotoxic T cells (CTLs),[1]; Lewis Lung tumors,enhanced CTL tumor infiltration
same,number of CTLs in the spleen,"[2]; 4T1 model, 43 days after treatment initiation, compared to immune check point inhibitors alone",further enhanced the number of CTLs
same,"presence of Natural Killer cells, macrophages and neutrophils in spleens",[2]; [3],"enhanced presence of NK cells, macrophages and PMN neuotrophiles"
same,presence of pro-tumorigenic mMDSCs in spleens,[2]; [3],reduction in the presence of pro-tumorigenic mMDSC
same,tumor infiltration of Cytotoxic T cells (CTLs),"[2]; 4T1 tumors, BGB324 combined with CTLA-4/PD-1 compared to CTLA-4/PD-1 alone",enhanced CTL tumor infiltration; also recorded: further enhanced tumour infiltration of CTLs
same,survival (tumor reaching 500 mm^3 as endpoint),Lewis Lung tumors,significantly prolonged survival
same,tumor burden,Lewis Lung tumors,reduced tumor burden
